Source: ChEMBL document CHEMBL1201862, “PubChem BioAssay data set” (2004)
Activity calls are given as the source filed them.

Experiments:
[1] = target: T1, Carboxy-terminal domain RNA polymerase II polypeptide A small phosphatase 1 (Homo sapiens, UniProt Q9GZU7); assay: CTDSP1 inhibitors, concentration-response, biochemical, absorbance readout, ultra-high-throughput screen actives (AID 540297); type: functional
T1 sequence (Q9GZU7 whole entry): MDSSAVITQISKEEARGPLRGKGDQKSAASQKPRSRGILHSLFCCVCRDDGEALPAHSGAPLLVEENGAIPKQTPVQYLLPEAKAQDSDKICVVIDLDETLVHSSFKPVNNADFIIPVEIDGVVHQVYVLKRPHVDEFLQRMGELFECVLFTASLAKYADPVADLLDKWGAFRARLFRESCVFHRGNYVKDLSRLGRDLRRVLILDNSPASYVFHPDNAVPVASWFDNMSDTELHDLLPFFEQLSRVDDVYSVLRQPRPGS

[2] = target: Cytochrome P450 3A4 (Homo sapiens, UniProt P08684);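 also: CYP3A4 tested as one member of a cytochrome P450 panel screen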
Sequence of Cytochrome P450 3A4 (P08684 whole entry): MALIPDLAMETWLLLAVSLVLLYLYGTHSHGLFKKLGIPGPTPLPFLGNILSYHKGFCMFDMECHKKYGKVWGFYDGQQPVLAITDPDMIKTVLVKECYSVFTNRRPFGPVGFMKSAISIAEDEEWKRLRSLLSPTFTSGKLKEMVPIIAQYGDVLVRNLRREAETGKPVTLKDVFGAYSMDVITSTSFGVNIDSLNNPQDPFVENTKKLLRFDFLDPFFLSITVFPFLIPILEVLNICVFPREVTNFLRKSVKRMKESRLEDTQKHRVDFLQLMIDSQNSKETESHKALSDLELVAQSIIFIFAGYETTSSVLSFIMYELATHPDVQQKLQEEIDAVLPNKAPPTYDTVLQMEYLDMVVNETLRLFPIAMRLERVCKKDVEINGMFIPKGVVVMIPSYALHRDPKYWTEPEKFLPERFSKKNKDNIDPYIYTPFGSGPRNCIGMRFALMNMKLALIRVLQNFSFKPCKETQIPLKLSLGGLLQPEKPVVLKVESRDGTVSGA

[3] = target: Cytochrome P450 2C19 (Homo sapiens, UniProt P33261); assay: Cytochrome panel assay with activity outcomes. Panel member name: p450-cyp2c19 Compounds with AC50 equal or less than 10 uM are considered active; type: functional; conditions: read-out: AC50
Sequence of Cytochrome P450 2C19 (P33261 whole entry): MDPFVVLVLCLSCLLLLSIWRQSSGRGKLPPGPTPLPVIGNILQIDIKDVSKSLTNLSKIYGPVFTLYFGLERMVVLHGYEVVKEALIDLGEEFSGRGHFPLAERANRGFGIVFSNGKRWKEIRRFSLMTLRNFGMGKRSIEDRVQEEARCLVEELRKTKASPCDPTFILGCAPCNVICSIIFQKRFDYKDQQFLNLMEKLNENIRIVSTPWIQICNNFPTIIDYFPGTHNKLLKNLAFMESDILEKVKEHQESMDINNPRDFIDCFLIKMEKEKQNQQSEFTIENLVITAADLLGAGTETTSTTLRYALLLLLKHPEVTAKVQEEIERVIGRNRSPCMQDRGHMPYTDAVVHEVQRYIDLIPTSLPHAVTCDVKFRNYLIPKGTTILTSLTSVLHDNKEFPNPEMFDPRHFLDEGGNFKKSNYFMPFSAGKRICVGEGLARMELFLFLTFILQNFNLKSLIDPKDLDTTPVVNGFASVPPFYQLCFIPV

[4] = target: Luciferin 4-monooxygenase (Photinus pyralis, UniProt P08659); assay: inhibition of purified Photinus pyralis luciferase – biochemical, luminescence, dose response (AID 1891)
Sequence of Luciferin 4-monooxygenase (P08659 whole entry): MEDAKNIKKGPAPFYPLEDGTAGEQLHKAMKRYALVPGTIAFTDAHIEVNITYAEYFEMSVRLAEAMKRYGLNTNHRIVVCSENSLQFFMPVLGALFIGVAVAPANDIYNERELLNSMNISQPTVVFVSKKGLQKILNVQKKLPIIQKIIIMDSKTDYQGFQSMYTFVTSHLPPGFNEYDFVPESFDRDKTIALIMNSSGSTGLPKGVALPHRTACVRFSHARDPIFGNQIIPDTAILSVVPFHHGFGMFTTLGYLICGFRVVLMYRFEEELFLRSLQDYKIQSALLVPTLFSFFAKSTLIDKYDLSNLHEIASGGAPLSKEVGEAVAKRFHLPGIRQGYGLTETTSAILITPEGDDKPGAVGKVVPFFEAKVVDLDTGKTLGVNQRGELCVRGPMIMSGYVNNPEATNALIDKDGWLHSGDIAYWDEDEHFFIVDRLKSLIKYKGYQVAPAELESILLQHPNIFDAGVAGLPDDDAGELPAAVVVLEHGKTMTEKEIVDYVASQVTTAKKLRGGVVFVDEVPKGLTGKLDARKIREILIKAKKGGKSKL

[5] = target: T2, Protein RecA (Mycobacterium tuberculosis, UniProt P9WHJ3); assay: Fluorescence Cell-Free Homogeneous Dose Retest to Identify Inhibitors of RecA-Intein Splicing Activity. [Related pubchem assays (depositor defined):AID2097, AID2223, AID489010, AID492950]; type: functional
T2 sequence (P9WHJ3 whole entry): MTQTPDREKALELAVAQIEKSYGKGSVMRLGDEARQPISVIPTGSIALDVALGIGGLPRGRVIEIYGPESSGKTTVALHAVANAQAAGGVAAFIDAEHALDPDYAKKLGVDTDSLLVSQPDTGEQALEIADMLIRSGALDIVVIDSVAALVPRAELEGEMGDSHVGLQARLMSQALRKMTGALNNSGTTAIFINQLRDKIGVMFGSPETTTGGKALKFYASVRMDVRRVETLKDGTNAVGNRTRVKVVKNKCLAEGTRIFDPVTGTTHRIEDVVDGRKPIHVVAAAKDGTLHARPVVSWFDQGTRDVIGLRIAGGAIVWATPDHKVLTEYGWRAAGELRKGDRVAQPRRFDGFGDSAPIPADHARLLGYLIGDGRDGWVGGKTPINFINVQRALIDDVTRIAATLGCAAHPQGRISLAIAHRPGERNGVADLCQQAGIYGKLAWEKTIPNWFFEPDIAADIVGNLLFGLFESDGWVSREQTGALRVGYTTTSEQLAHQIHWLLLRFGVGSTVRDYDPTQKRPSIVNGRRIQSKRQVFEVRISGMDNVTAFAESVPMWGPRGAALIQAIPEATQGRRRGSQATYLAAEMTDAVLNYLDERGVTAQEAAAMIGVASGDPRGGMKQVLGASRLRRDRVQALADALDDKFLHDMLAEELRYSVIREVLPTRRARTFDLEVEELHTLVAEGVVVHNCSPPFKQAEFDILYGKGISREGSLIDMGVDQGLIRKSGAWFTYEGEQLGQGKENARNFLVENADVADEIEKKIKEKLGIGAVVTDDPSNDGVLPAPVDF

[6] = Luminescence Cell-Based Dose Confirmation HTS to Identify Inhibitors of Platelet Dense Granule Release. [Related pubchem assays: 1663 (Primary HTS), 1678 (Summary of Project)]; type: functional
[7] = target: T3, Replicative DNA helicase DnaB (Mycobacterium tuberculosis, UniProt P9WMR3); assay: DnaB intein splicing inhibitors, dose response, biochemical, cell-free fluorescence (AID 449749); type: functional
T3 sequence (P9WMR3 whole entry): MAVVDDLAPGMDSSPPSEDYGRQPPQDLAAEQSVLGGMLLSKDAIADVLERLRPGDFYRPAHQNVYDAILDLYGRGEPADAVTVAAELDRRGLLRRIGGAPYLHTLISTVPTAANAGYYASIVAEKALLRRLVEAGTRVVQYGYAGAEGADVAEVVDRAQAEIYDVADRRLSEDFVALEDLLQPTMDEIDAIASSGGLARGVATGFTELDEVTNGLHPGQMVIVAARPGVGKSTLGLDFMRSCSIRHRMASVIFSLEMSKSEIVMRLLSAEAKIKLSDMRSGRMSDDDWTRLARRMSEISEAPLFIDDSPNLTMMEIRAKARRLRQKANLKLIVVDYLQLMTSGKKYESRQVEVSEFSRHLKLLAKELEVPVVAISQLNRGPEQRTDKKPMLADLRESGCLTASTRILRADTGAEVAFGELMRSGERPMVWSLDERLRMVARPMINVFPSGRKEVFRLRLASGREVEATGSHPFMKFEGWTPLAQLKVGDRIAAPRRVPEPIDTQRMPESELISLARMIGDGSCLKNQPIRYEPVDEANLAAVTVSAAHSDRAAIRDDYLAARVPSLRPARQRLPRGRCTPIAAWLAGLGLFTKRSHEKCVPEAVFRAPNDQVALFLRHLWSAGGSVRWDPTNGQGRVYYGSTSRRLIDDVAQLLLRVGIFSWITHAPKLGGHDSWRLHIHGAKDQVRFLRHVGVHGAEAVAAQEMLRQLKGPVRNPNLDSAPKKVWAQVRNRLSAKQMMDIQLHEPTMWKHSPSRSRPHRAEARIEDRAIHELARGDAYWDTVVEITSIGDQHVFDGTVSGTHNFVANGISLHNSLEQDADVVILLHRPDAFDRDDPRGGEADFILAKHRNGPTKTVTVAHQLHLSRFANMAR

[8] = target: T4, Calpain-2 catalytic subunit (Sus scrofa, UniProt P43367); assay: m-calpain protease blockers, concentration series – biochemical, fluorogenic peptide substrate, dose response (AID 1420); type: functional
T4 sequence (P43367 whole entry): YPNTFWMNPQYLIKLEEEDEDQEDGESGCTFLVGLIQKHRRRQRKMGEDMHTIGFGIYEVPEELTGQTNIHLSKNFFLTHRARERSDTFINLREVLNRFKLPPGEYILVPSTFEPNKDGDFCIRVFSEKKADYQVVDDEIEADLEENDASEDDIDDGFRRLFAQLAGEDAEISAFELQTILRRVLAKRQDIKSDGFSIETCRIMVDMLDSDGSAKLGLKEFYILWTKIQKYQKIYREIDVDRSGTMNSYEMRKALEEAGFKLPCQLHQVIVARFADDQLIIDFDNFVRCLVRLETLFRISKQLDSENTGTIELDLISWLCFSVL

[9] = target: T5, Heat shock factor protein 1 (Mus musculus, UniProt P38532); assay: decrease of HSF1-responsive luciferase luminescence – cell-based, NIH3T3, dose retest, confirmation (AID 2382); type: functional;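 also: NIH3T3 fibroblasts with HSF1-driven luciferase reporter stressed by proteasome inhibitor MG132; luminescence from HSF1-driven luciferase expression after 8 hours of MG132 stress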
T5 sequence (P38532 whole entry): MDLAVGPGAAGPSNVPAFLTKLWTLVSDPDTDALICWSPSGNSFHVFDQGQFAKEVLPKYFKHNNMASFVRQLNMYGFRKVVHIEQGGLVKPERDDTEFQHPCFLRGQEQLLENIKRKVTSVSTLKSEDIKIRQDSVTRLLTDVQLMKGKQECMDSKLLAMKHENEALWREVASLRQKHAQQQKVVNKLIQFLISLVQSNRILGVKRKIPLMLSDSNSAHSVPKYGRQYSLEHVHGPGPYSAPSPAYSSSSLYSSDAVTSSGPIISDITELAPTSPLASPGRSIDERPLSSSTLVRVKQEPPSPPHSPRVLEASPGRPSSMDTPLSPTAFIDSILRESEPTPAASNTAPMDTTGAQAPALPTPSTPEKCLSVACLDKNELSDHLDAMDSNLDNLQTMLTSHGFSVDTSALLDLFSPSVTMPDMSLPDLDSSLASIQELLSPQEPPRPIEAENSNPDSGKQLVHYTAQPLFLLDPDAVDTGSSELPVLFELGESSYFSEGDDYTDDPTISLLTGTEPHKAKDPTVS

[10] = tested on: Streptococcus; assay: GAS UMAA2166 growth inhibition – luminescence, BacTiterGlo, counter-screen for streptokinase expression inhibitor project, dose response (AID 1915); type: functional, organism-based;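 also: potency for reduction of bacterial viability or growth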
[11] = tested on: Streptococcus sp. 'group A'; assay: Streptococcus pyogenes SK(-)GAS viability under kanamycin – luminescence, BacTiterGlo, confirmation, counter-screen for streptokinase expression inhibitor project, dose response (AID 1900); type: functional, organism-based
[12] = target: T6, Fatty acid synthase (Homo sapiens, UniProt P49327); assay: inhibition of human FAS-TE enzyme activity – biochemical, kinetic fluorescence intensity, dose response (AID 624326); type: functional;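 also: rate of fluorescence rise from hydrolysis of a fluorogenic O-methyl fluorescein ester substrate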
T6 sequence (P49327 whole entry): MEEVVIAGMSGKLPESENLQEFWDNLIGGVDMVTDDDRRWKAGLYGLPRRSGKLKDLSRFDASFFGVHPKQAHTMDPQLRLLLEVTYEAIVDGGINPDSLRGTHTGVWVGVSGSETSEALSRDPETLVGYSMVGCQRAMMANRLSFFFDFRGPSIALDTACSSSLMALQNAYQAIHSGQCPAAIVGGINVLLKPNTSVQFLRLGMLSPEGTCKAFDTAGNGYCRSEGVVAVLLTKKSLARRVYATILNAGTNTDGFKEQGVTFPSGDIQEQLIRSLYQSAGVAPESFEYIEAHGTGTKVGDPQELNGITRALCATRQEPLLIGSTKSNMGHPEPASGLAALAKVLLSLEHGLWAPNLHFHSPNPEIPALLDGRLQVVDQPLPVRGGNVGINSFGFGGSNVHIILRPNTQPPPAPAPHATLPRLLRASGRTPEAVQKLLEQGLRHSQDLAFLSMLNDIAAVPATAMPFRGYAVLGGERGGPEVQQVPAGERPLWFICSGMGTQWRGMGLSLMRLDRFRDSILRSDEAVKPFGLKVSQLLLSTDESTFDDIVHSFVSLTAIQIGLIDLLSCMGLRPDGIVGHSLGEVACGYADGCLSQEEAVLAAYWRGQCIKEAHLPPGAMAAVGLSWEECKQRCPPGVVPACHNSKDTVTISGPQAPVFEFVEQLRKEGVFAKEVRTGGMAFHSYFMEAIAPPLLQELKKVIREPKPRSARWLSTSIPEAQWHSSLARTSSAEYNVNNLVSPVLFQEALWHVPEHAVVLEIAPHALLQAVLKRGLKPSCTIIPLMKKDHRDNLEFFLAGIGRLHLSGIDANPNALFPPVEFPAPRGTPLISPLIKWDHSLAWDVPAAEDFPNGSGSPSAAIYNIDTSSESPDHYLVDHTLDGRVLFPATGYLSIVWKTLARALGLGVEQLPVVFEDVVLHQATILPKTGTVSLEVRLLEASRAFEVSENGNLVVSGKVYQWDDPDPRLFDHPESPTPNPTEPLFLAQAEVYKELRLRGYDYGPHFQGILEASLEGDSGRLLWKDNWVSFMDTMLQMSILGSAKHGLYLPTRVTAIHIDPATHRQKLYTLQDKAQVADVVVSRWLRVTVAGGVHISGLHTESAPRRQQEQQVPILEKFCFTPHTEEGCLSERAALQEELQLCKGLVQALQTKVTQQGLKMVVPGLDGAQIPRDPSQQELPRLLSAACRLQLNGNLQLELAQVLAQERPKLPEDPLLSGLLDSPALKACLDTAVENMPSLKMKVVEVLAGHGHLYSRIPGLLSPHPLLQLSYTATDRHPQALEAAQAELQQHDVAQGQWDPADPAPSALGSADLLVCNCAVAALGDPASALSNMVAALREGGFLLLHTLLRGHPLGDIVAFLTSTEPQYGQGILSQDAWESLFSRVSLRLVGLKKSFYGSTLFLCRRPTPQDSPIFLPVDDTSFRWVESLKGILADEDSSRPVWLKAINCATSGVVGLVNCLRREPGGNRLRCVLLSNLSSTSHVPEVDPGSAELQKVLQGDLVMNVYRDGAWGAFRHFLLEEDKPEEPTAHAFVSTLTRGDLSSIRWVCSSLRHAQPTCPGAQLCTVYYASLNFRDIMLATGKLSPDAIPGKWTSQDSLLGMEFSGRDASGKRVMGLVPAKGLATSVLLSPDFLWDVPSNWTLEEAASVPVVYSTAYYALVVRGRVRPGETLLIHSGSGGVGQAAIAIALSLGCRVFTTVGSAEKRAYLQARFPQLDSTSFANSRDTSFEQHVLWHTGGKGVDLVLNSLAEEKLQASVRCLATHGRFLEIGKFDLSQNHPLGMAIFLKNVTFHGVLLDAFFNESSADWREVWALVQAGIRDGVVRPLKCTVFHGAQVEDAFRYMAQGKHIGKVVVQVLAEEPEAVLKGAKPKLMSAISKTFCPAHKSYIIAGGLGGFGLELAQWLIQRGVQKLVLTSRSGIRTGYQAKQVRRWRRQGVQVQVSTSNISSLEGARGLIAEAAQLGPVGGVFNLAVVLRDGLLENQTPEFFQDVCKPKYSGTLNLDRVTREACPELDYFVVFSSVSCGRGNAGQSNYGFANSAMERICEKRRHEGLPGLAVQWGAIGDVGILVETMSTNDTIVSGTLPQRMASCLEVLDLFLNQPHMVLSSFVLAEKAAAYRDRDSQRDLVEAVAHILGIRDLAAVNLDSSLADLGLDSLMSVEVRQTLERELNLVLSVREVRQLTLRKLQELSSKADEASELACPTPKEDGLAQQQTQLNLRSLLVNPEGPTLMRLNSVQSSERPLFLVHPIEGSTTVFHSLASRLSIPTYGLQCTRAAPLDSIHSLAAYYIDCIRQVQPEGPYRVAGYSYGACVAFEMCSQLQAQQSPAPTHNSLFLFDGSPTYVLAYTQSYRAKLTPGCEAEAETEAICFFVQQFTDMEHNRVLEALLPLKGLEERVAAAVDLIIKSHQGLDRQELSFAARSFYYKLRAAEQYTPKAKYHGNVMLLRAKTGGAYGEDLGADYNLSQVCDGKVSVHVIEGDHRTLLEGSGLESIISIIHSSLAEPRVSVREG

[13] = target: T6, Fatty acid synthase; assay: inhibition of human FAS-TE enzyme activity – biochemical, endpoint fluorescence intensity, uHTS hits, dose response (AID 624327); type: functional;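 also: fluorescence from hydrolysis of an O-methyl fluorescein acyl ester substrate by the enzyme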
[14] = tested on: H4; assay: Luminescence Cell-Based Dose Response HTS to Identify Activators of 5'UTR Stem-Loop Driven Prion Protein mRNA Translation in H4 Neuroglioblastoma Cells. [Related pubchem assays: 1829 (Project Summary), 1814 (Primary HTS)]; type: functional; conditions: Homo sapiens
[15] = Luminescence Cell-Based Dose Confirmation HTS to Identify Activators of 5'UTR Stem-Loop Driven Alpha-Synuclein mRNA Translation in H4 Neuroglioblastoma Cells. [Related pubchem assays: 1829 (Project Summary), 1814 (Primary HTS)]; type: functional
[16] = Luminescence Cell-Based Dose Response HTS to Identify Activators of Luciferase Translation or Activity in H4 […] Cells. [Related pubchem assays: 1829 (Project Summary), 1814 (Primary HTS)]; type: functional
[17] = target: T5, Heat shock factor protein 1; assay: enhancement of HSF1-driven luciferase signal – cell-based, NIH3T3, luminescence, dose retest, confirmation (AID 435004); type: functional;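 also: stress induced by proteasome inhibitor MG132 added 30 min after compound; luciferase reporter driven by HSF1 response element in NIH3T3 cells; actives raise luminescence as potentiators of the MG132 stress response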

SMILES: CCc1ccc(NC(=O)C[S+]([O-])CC(=O)NCCCc2ccccc2)cc1 (configuration not stated)
- IC50 [1]: 7.62 µM (active)
- AC50 [2]: 2.82 µM (inconclusive)
- AC50 [3]: 11.2 µM (inconclusive)

SMILES: C[C@@H]1CC=C[C@@H]2[C@H]1C(=O)N(Cc1ccccc1)[C@H]2c1cccc(C#Cc2ccccc2)c1
- IC50 [1]: 20 µM (active)

SMILES: O=C1CCN(N=Nc2cccc(Cl)c2)N1
- EC50 [4]: > 112 µM (not active)
- EC50 [5]: 15.4 µM (active)
- EC50 [6]: > 112 µM (not active)
- AC50 [7]: 40.7 µM (active)

SMILES: COc1ccc(NC(=S)N2CCN(CCN3C(=O)c4cccc5cccc(c45)C3=O)CC2)cc1
- IC50 [8]: 24.2 µM (not active)

SMILES: O=C(N/N=C/c1ccc(Cl)c([N+](=O)[O-])c1)C1CC1
- IC50 [8]: 34.8 µM (not active)

SMILES: O=C(O)c1cccc(N/N=C/C2=C(Cl)c3cc(Cl)ccc3SC2)c1
- EC50 [9]: > 195 µM (not active)
- EC50 [10]: 6.65 µM (active)
- EC50 [11]: 2.48 µM (active)
- IC50 [8]: 2.38 µM (not active)

SMILES: CC(C)OC(=O)c1cn(-c2ccccc2)nc1-c1ccc2c(c1)OCCO2
- IC50 [8]: 39.3 µM (not active)

SMILES: C[N+]1(C)CCc2cc3c(cc2[C@H]1[C@@H]1OC(=O)c2c1ccc1c2OCO1)OCO3
- IC50 [1]: 3.48 µM (active)

SMILES: C=CCNc1nc(C(=O)OCC(=O)c2cccc(Br)c2)cs1
- IC50 [1]: 4 µM (active)

SMILES: C=CCn1c(=S)[nH]c2cc(C(=O)N3CCN(c4ccccc4OC)CC3)ccc2c1=O
- IC50 [12]: 32.9 µM (inactive)
- IC50 [13]: 17.6 µM (active)

SMILES: O=[N+]([O-])c1ccc(-c2c[nH]c(SCc3ccccc3Cl)n2)cc1
- EC50 [14]: 17.5 µM (active)
- EC50 [15]: > 120 µM (not active)
- EC50 [16]: 18.9 µM (active)

SMILES: CCS(=O)(=O)c1ccc(-c2csc(-c3ccccc3)n2)c(Cl)c1Cl
- IC50 [12]: 0.907 µM (active)
- IC50 [13]: 1.21 µM (active)

SMILES: O=C(CSc1nnnn1-c1ccc(Cl)cc1)NC(=O)Nc1ccc2c(c1)OCCO2
- EC50 [14]: 10.1 µM (active)
- EC50 [15]: > 120 µM (not active)
- EC50 [16]: 45.7 µM (active)

SMILES: CC(=O)N(C)c1ccc(NC(=O)Nc2ccc(C)cc2)cc1
- IC50 [8]: 0.673 µM (not active)

SMILES: CC(C)=C1C2CCC1C1C(=O)N(c3nc(-c4ccccc4)c(C)s3)C(=O)C21 (configuration not stated)
- EC50 [17]: > 260 µM (inactive)
- IC50 [8]: 8.52 µM (not active)

SMILES: O=C1/C(=C/Nc2cccc(O)c2)c2ccccc2C(=O)N1c1ccc2c(c1)OCO2
- EC50 [14]: > 120 µM (not active)
- EC50 [15]: > 120 µM (not active)
- EC50 [16]: > 120 µM (not active)

SMILES: O=C(CCN1C(=O)/C(=C/c2ccc(Cl)cc2)SC1=S)Nc1cccc(C(=O)O)c1
- IC50 [1]: 4.43 µM (active)

SMILES: Cc1ccc(-c2n[nH]c(Cc3ccccc3)n2)cc1
- EC50 [14]: 60.8 µM (active)
- EC50 [15]: 0.105 µM (active)
- EC50 [16]: 2.44 µM (active)

SMILES: Cc1nc2sc(C(=O)c3ccccc3)c(N)c2c2c1CCCC2
- EC50 [4]: > 112 µM (not active)
- EC50 [14]: 10.5 µM (active)
- EC50 [15]: > 120 µM (not active)
- EC50 [6]: > 112 µM (not active)
- EC50 [16]: 6.25 µM (active)

SMILES: Cc1c(OC(C)C(=O)NCc2ccccn2)ccc2c3c(c(=O)oc12)CCCC3 (configuration not stated)
- EC50 [4]: > 112 µM (not active)
- EC50 [6]: > 112 µM (not active)

SMILES: CCCCNC(=O)c1ccc(N2CCC3(CC2)OCCO3)c([N+](=O)[O-])c1
- EC50 [4]: > 112 µM (not active)
- EC50 [6]: > 112 µM (not active)

SMILES: OCCCNc1nc(-c2ccc(Cl)cc2)nnc1-c1ccc(Br)cc1
- IC50 [8]: 3.09 µM (not active)
